# Measured values taken from US10364238B2, “N-((het) arylmethyl)-heteroaryl-carboxamides compounds as plasma kallikrein inhibitors” (KALVISTA PHARMACEUTICALS LIMITED, priority 2014, dated 2019).
# Experiments:
# Assay type in all cases: biochemical
# [1] = biological target: Human KLK1 (Homo sapiens (Human), UniProt P06870); assay: Determination of the IC50 for KLK1; settings: 25° C., fluorogenic substrate H-DVal-Leu-Arg-AFC
# Procedure: Determination of the IC50 for KLK1
# (§1) Human KLK1 (Callbiochem) was incubated at 25° C. with the fluorogenic substrate H-DVal-Leu-Arg-AFC and various concentrations of the test compound. Residual enzyme activity (initial rate of reaction) was determined by measuring the change in […] at 410 nm and the IC50 value for the test compound was determined.
# [2] = biological target: Human FXIa (Homo sapiens (Human), UniProt P03951); assay: Determination of the % inhibition for FXIa; settings: 40 μM test compound, 25° C., substrate Z-Gly-Pro-Arg-AFC
# Procedure: Determination of the % Inhibition for FXIa
# Human FXIa (Enzyme Research Laboratories) was incubated at 25° C. with the fluorogenic substrate Z-Gly-Pro-Arg-AFC and 40 μM of the test compound. Residual enzyme activity (initial rate of reaction) was determined by measuring the change in […].
# [3] = biological target: Human plasma kallikrein (Homo sapiens (Human), UniProt P03952); assay: Determination of the IC50 for plasma kallikrein; settings: 25° C., fluorogenic substrate H-DPro-Phe-Arg-AFC; read-out: IC50 (human PKaI)
# Procedure: Determination of the IC50 for Plasma Kallikrein
# as §1, with “plasma kallikrein (Protogen)” for “KLK1 (Callbiochem)”, “H-DPro-Phe-Arg-AFC” for “H-DVal-Leu-Arg-AFC”
# Human KLK1, sequence (P06870 25-262): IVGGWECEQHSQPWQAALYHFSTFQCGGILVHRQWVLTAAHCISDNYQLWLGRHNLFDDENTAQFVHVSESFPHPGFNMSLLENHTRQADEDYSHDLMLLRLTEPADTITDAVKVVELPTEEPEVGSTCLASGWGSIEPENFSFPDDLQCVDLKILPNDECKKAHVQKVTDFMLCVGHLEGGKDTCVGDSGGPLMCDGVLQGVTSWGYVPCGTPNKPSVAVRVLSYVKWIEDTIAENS
# Human FXIa, sequence (P03951 388-625): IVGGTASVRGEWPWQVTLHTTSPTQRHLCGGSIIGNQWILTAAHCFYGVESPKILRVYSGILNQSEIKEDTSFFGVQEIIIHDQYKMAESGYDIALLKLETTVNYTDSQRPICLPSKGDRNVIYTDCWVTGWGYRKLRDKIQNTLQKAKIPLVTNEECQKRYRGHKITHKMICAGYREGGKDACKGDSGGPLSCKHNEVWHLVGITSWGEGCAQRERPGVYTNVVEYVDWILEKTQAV
# Human FXIa, sequence (P03951 19-387 partner): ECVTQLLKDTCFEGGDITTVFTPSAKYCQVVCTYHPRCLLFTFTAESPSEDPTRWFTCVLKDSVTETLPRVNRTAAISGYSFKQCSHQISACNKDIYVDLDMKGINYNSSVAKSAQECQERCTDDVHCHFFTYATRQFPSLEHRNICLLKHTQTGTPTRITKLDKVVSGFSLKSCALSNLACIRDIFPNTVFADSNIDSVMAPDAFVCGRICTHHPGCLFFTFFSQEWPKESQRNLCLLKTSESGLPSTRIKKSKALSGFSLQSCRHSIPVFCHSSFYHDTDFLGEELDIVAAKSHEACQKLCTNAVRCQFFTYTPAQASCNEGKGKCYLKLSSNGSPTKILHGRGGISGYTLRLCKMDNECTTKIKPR
# Human plasma kallikrein, sequence (P03952 391-638): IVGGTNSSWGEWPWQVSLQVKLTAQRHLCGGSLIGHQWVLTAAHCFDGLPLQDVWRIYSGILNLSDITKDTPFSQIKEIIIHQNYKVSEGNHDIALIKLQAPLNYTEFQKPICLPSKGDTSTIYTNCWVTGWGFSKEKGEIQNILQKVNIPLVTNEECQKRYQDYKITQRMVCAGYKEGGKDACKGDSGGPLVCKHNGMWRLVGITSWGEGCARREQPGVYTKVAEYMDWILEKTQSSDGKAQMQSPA
# Human plasma kallikrein, sequence (P03952 20-390 partner): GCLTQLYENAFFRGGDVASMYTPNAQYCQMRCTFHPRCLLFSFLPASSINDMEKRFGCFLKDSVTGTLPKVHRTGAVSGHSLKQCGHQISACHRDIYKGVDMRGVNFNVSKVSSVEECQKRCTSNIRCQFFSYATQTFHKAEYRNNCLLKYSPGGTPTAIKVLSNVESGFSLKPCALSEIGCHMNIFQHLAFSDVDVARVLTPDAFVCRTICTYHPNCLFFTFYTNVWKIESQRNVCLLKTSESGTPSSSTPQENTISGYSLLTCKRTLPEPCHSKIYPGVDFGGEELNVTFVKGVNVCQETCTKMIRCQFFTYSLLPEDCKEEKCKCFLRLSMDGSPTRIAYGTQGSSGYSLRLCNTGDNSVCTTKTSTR
SMILES,IC50 [1],inhibition at 40 µM [2],IC50 [3],% Inhibition @ 40 μM (human FXIa) [2]
"COCc1nn(Cc2cnc3cc(Cl)ccc3c2)cc1C(=O)NCc1cccc(OC)c1F [Example 3, 1-(7-Chloro-quinolin-3-ylmethyl)-3-methoxymethyl-1H-pyrazole-4-carboxylic acid 2-fluoro-3-methoxy-benzylamide]",> 10 µM,3%,2.58 µM,
"COCc1nn(Cc2ccc(Cn3ccccc3=O)cc2)cc1C(=O)NCc1cc(OC)ccc1C(F)(F)F [Example 79, N-{[5-methoxy-2-(trifluoromethyl)phenyl]methyl}-3-(methoxymethyl)-1-({4-[(2-oxopyridin-1-yl)methyl]phenyl}methyl)pyrazole-4-carboxamide]",> 40 µM,2%,0.0147 µM,
"Nc1nn(Cc2ccc(Cn3ccccc3=O)cc2)cc1C(=O)NCc1ccc(OC(F)(F)F)cc1 [Example 58, 3-amino-1-({4-[(2-oxopyridin-1-yl)methyl]phenyl}methyl)-N-{[4-(trifluoromethoxy)phenyl]methyl}pyrazole-4-carboxamide]",> 10 µM,,5.78 µM,0%
"COCc1nn(Cc2ccc(Cn3ccccc3=O)cc2)cc1C(=O)NCc1ccccc1C(=O)O [Example 87, 2-({[3-(methoxymethyl)-1-({4-[(2-oxopyridin-1-yl)methyl]phenyl}methyl)pyrazol-4-yl]formamido}methyl)benzoic acid]",> 10 µM,2%,> 10 µM,
"COc1cccc(CNC(=O)c2cn(Cc3ccc(Cn4ccccc4=O)cc3)nc2N(C)C(C)=O)c1F [Example 72, N-[(2-fluoro-3-methoxyphenyl)methyl]-3-(N-methylacetamido)-1-({4-[(2-oxopyridin-1-yl)methyl]phenyl}methyl)pyrazole-4-carboxamide]",> 10 µM,1%,6.61 µM,
"COCc1nn(Cc2ccc(Cn3ccccc3=O)cc2)cc1C(=O)NCc1ccccc1C(F)F [Example 68, N-{[2-(difluoromethyl)phenyl]methyl}-3-(methoxymethyl)-1-({4-[(2-oxopyridin-1-yl)methyl]phenyl}methyl)pyrazole-4-carboxamide]",> 10 µM,6%,0.0811 µM,
"COCc1nn(Cc2ccc(Cn3ccccc3=O)cc2)cc1C(=O)NCc1nc(OC)ccc1F [Example 42, N-[(3-fluoro-6-methoxypyridin-2-yl)methyl]-3-(methoxymethyl)-1-({4-[(2-oxopyridin-1-yl)methyl]phenyl}methyl)pyrazole-4-carboxamide]",> 10 µM,1%,0.831 µM,
"COCc1nn(Cc2ccc(Cn3ccccc3=O)cc2)cc1C(=O)NCc1cc(OC)ccc1F [Example 64, N-[(2-fluoro-5-methoxyphenyl)methyl]-3-(methoxymethyl)-1-({4-[(2-oxopyridin-1-yl)methyl]phenyl}methyl)pyrazole-4-carboxamide]",> 10 µM,0%,0.0352 µM,
"COCc1nn(Cc2ccc(Cn3ccccc3=O)cc2)cc1C(=O)NCc1cc(OC)cc(OC)c1 [Example 1, N-(3,5-Dimethoxybenzyl)-3-(methoxymethyl)-1-(4-((2-oxopyridin-1(2H)-yl)methyl)benzyl)-1H-pyrazole-4-carboxamide]",> 10 µM,0%,0.698 µM,
"COCc1nn(Cc2ccc(Cn3ccccc3=O)cc2)cc1C(=O)NCc1cc(Cl)cc(OC)c1 [Example 67, N-[(3-chloro-5-methoxyphenyl)methyl]-3-(methoxymethyl)-1-({4-[(2-oxopyridin-1-yl)methyl]phenyl}methyl)pyrazole-4-carboxamide]",> 10 µM,0%,0.393 µM,
"COc1cccc(CNC(=O)c2cn(Cc3ccc(Cn4ccccc4=O)cc3)nc2C2CC2)c1F [Example 52, 3-cyclopropyl-N-[(2-fluoro-3-methoxyphenyl)methyl]-1-({4-[(2-oxopyridin-1-yl)methyl]phenyl}methyl)pyrazole-4-carboxamide]",> 40 µM,,0.0233 µM,1%
"COCc1nn(Cc2ccc(Cn3ccccc3=O)cc2)cc1C(=O)NCc1c(F)ccc(Cl)c1F [Example 73, N-[(3-chloro-2,6-difluorophenyl)methyl]-3-(methoxymethyl)-1-({4-[(2-oxopyridin-1-yl)methyl]phenyl}methyl)pyrazole-4-carboxamide]",> 10 µM,8%,0.12 µM,
"Nc1nn(Cc2ccc(Cn3ccccc3=O)cc2)cc1C(=O)NCc1c(F)cccc1C(F)(F)F [Example 70, 3-amino-N-{[2-fluoro-6-(trifluoromethyl)phenyl]methyl}-1-({4-[(2-oxopyridin-1-yl)methyl]phenyl}methyl)pyrazole-4-carboxamide]",> 10 µM,6%,0.0267 µM,
"COCc1nn(Cc2ccc(Cn3ccccc3=O)cc2)cc1C(=O)NCc1cccc(OC)n1 [Example 40, 3-(methoxymethyl)-N-[(6-methoxypyridin-2-yl)methyl]-1-({4-[(2-oxopyridin-1-yl)methyl]phenyl}methyl)pyrazole-4-carboxamide]",> 10 µM,1%,3.7 µM,
"COCc1nn(Cc2ccc(Cn3ccccc3=O)cc2)cc1C(=O)NCc1cccnc1C(F)(F)F [Example 36, 3-(methoxymethyl)-1-({4-[(2-oxopyridin-1-yl)methyl]phenyl}methyl)-N-{[2-(trifluoromethyl)pyridin-3-yl]methyl}pyrazole-4-carboxamide]",> 10 µM,0%,4.17 µM,

# The next lines start with results.
IC50 [1],inhibition at 40 µM [2],IC50 [3],SMILES,% Inhibition @ 40 μM (human FXIa) [2]
> 10 µM,0%,0.691 µM,"COCc1nn(Cc2ccc(Cn3ccncc3=O)cc2)cc1C(=O)NCc1cccc(OC)c1F [Example 104, N-[(2-fluoro-3-methoxyphenyl)methyl]-3-(methoxymethyl)-1-({4-[(2-oxopyrazin-1-yl)methyl]phenyl}methyl)pyrazole-4-carboxamide]",
> 10 µM,2%,2.98 µM,"CCOc1ccn(Cc2ccc(Cn3cc(C(=O)NCc4c(F)ccc(OC)c4F)c(COC)n3)cc2)c(=O)c1 [Example 109, N-[(2,6-difluoro-3-methoxyphenyl)methyl]-1-({4-[(4-ethoxy-2-oxopyridin-1-yl)methyl]phenyl}methyl)-3-(methoxymethyl)pyrazole-4-carboxamide]",
> 10 µM,0%,0.0439 µM,"COc1cccc(CNC(=O)c2cn(Cc3ccc(Cn4ccccc4=O)cc3)c(C)n2)c1F [Example 121, N-[(2-fluoro-3-methoxyphenyl)methyl]-2-methyl-1-({4-[(2-oxopyridin-1-yl)methyl]phenyl}methyl)imidazole-4-carboxamide]",
> 40 µM,0%,0.075 µM,"COCc1nn(Cc2ccc(Cn3ccccc3=O)cc2)cc1C(=O)NCc1cc(F)cc(OC)c1F [Example 96, N-[(2,5-difluoro-3-methoxyphenyl)methyl]-3-(methoxymethyl)-1-({4-[(2-oxopyridin-1-yl)methyl]phenyl}methyl)pyrazole-4-carboxamide]",
> 40 µM,33%,0.0647 µM,"CN1CC(CNC(=O)c2cn(Cc3ccc(Cn4ccccc4=O)cc3)nc2N)Oc2cc(Cl)ccc21 (stereo not drawn) [Example 139, 3-amino-N-[(7-chloro-4-methyl-2,3-dihydro-1,4-benzoxazin-2-yl)methyl]-1-({4-[(2-oxopyridin-1-yl)methyl]phenyl}methyl)pyrazole-4-carboxamide]",
> 40 µM,9%,0.0106 µM,"Nc1nn(Cc2ccc(Cn3ccccc3=O)cc2)cc1C(=O)NCC1CNc2ccc(Cl)cc2O1 (stereo not drawn) [Example 140, 3-amino-N-[(7-chloro-3,4-dihydro-2H-1,4-benzoxazin-2-yl)methyl]-1-({4-[(2-oxopyridin-1-yl)methyl]phenyl}methyl)pyrazole-4-carboxamide]",
> 10 µM,0%,0.523 µM,"COCc1nn(Cc2ccc(Cn3ccccc3=O)cc2)cc1C(=O)NCc1cccc(OC(F)F)c1 [Example 91, N-{[3-(difluoromethoxy)phenyl]methyl}-3-(methoxymethyl)-1-({4-[(2-oxopyridin-1-yl)methyl]phenyl}methyl)pyrazole-4-carboxamide]",
> 10 µM,0%,0.78 µM,"COCc1nn(Cc2ccc(Cn3ccccc3=O)cc2)cc1C(=O)NCc1cc(F)ccc1F [Example 94, N-[(2,5-difluorophenyl)methyl]-3-(methoxymethyl)-1-({4-[(2-oxopyridin-1-yl)methyl]phenyl}methyl)pyrazole-4-carboxamide]",
> 10 µM,0%,1.51 µM,"COCc1nn(Cc2ccc(Cn3ccccc3=O)cc2)cc1C(=O)NCc1ccccc1C(=O)OC [Example 131, methyl 2-({[3-(methoxymethyl)-1-({4-[(2-oxopyridin-1-yl)methyl]phenyl}methyl)pyrazol-4-yl]formamido}methyl)benzoate]",
